The source of these data is patent US9089514B2, “Composition and method for inhibiting biogenic sulfide generation” (Arkion Life Sciences, priority 2010, dated 2015).

“And” between values parts separate entries of the source, which are not always exact repeats. Equal values may be shown once.

Common to all, as to type: cell-based, Prudhoe Bay sulfate reducing bacteria
The subject of experiment [1] is sulfate reducing bacteria (SRB) biofilms. In words: Test Series #3b: simulated gravity settling, AQ vs AHQ-slurry-2, sulfide monitoring. The procedure:
(§1) 6. Monitor the aqueous sulfide content in the tubes daily for up to three days, beginning the day after treatment, to determine the effectiveness of each treatment option on generation of hydrogen sulfide. Sulfide dissolved in the medium was determined in mg/L using Hach Method 8131 for the Hach DR-2010 spectrophotometer. The method utilizes methylene blue to measure total sulfides. The sulfide level in each tube was determined by gently inverting the tube several times, uncapping the tube and quickly removing a 125 μl aliquot of solution, and recapping the tube. The aliquot was diluted in 24.9 ml of deionized water in a quartz cuvette for the Hach procedure. The procedure is summarized in Table 1 for three separate test series.
(§2) Gravity settling in the tank was simulated by spinning the culture tubes after treatment in a laboratory centrifuge at 2000 to 2700 rpm. The AQ or AHQ particles then “settled” to the bottom of the tube and were able to deposit into the biofilm on the granite chips. The medium above the granite chips was then removed and replaced with fresh medium. The tubes were then incubated at 30° C. in the Lab-Line Orbit Environ-Shaker. The concentration of AQ or AHQ in the removed medium was analyzed to determine the amount of AQ or AHQ deposited in the biofilm. Experiments were run with duplicate samples.
Test Series #3b was performed with the same procedure as Test Series #3a to compare the efficacy of the AQ test mixture (AQ) with that of AHQ-slurry-2 at the same AHQ or AQ mass loading (0.254 mg). The tubes were spun for 20 seconds.

Experiment [2] has the same test system. The experiment in a line: Test Series #2: AQ, AHQ and AQ:AHQ slurries, sulfide monitoring in SRB biofilm tubes. Conditions: for Sulfides Day 1: day 1, same combined mass of active AQ plus AHQ; for Sulfides Day 1 / Sulfides Day 2 / Sulfides Day 3: AHQ-slurry-2 used; for Sulfides Day 2: day 2, same combined mass of active AQ plus AHQ; for Sulfides Day 3: day 3, same combined mass of active AQ plus AHQ. The procedure: (§3) 1. Load 7 grams of crushed granite chips into 15-ml culture tubes; autoclave.
(§4) 2. Prepare an inoculum by adding a culture of Prudhoe Bay sulfate reducing bacteria to a flask containing an appropriate iron-free culture medium for sulfate reducing bacteria that further contains 90% deaerated artificial sea water. Incubate bacteria anaerobically at 30° C. for 3-4 days.
(§5) 3. Fill each 15 ml culture tube containing granite chips with the inoculum; incubate tubes anaerobically at 30° C. for 7-11 days in a Lab-Line Orbit Environ-Shaker set at 30° C. and 120 rpm. All incubation steps for the bacteria in the culture tubes were performed is in the Environ-Shaker.
(§6) 4. Pour off spent medium and fill with fresh medium. Incubate for 6-7 days then replace medium with fresh medium again. Repeat medium change after 4-8 days and incubate for 3-5 additional days.
(§7) 5. Treat the biofilms that have grown on the granite chips as described below. Incubate at 30° C.
as §1
(§8) This test series was performed to further compare the efficacy of slurries of AHQ and AQ and combinations of AHQ/AQ in slurries in controlling H2S emissions. AHQ-slurry-2 was used in this series of experiments. The tests were performed by first removing the spent medium from the tubes, refilling with fresh medium, treating with the test solution, tumbling the tubes for two minutes, and then incubating at 30° C. in the Lab-Line Orbit Environ-Shaker.
Each test was made with the same combined mass of active AQ plus AHQ. Results, as summarized in Table 3 and FIG. 2, confirmed the results of Series #1 in that all treatments were effective compared with the control.

For experiment [3] the test system is unchanged. The experiment in a line: Test Series #1: inhibition of H2S biogeneration from SRB biofilms on granite chips. Conditions: for Sulfides Day 1: day 1 after treatment; for Sulfides Day 1 / Sulfides Day 2 / Sulfides Day 3: THPS 51 ppmw, AQ or AHQ (AHQ-slurry-1) 25 ppmw per tube, 30° C.; for Sulfides Day 2: day 2 after treatment; for Sulfides Day 3: day 3 after treatment. The method, then: as §3, §4, §5, §6, §7, §1
Following the growth of the sulfate reducing bacteria (SRB) biofilms on the granite chips in the culture tubes, the biofilms were treated by injecting the appropriate test solution and then gently tumbling the tubes for two minutes on a Barnstead/Thermolyne Labquake Tube Shaker to allow the treatment solution to dynamically contact the biofilms.
Test compound solutions were injected into the tubes. THPS was added to 51 ppmw per tube. AQ and AHQ-slurry-1 were added to 25 ppmw AQ or AHQ per tube. Each tube contained about 14 ml of medium. The tubes were tumbled for two minutes, then moved to a nitrogen glove bag. The liquid was removed and the tubes were washed once with is medium and then refilled with medium. The tubes were then tumbled once more for two minutes before being placed in a Lab-Line Orbit Environ-Shaker set at 30° C. and 120 rpm for incubation.
Control tubes contained biofilms on granite chips and culture medium, but no test compound. Control tubes were otherwise handled as described above for test-compound tubes.
In THPS-treated tubes all of the residual THPS was removed so that biocidal activity occurred only during the contact time while tumbling. In AQ and AHQ treated tubes, residual test solutions were allowed to remain in the tubes to simulate treatment in a tank, where AQ or AHQ settles in the biofilm/sludge at the bottom of the vessel. Treatments were performed in duplicate.

Experiment [4] has the same test system. The experiment in a line: AHQ di-alkali salt solution vs AHQ-slurry-2 by the Test Series #2 procedure. To be noted: 18 ppmw AHQ. The method, then: as §1, §8
Each test treatment contained 18 ppmw AHQ. […] However, under some circumstances, larger particle sizes are preferable. […]

The test system is the same in experiment [5]. In words: Test Series #3a: simulated gravity settling in tank (centrifugation), sulfide monitoring. Conditions: 0.254 mg AHQ. The procedure: as §1, §2
Two series of tests were performed with this procedure. Series #3a compared the efficacy of treating with the AHQ di-alkali salt test solution (AHQ) and the AHQ test mixture #2 (AHQ-slurry-2) at the same AHQ mass loading (0.254 mg AHQ). Two different centrifugation times (20 sec, 60 sec) were utilized in Test Series #3a to represent two different tank residence times.

As to `O=C1c2ccccc2C(=O)c2ccccc21` [AQ, anthraquinone], the “Sulfides Day 1” value in experiment [1] (spun 20 sec, 0.254 mg AHQ or AQ, day 1) was 43.8 mg/L and 33.8 mg/L. In experiment [1] (spun 20 sec, 0.254 mg AHQ or AQ, day 2), the “Sulfides Day 2” value was 54.2 mg/L and 50.2 mg/L. Besides, in experiment [2], the “Sulfides Day 1” value was 33.2 mg/L and 30.4 mg/L; the “Sulfides Day 2” value is 40 mg/L and 38.8 mg/L; the “Sulfides Day 3” value is 44.4 mg/L and 43.2 mg/L. In experiment [3], the “inhibiting H2S biogeneration from SRB biofilms (comparison in words)” value was “comparable to THPS treatment”; the “Sulfides Day 1” value was 22.6 mg/L and 19 mg/L; the “Sulfides Day 2” value is 41.2 mg/L and 34.6 mg/L; the “Sulfides Day 3” value is 46.2 mg/L and 40.8 mg/L.

Turning to `Oc1c2ccccc2c(O)c2ccccc12` [AHQ, anthrahydroquinone], the “inhibiting H2S generation (comparison in words)” value in experiment [1] is “superior to AQ in inhibiting H2S generation”. For the same molecule, in experiment [2], the “inhibiting the generation of H2S (comparison in words)” value is “more effective than AQ solution alone or AHQ/AQ neutral slurry combinations”; the “Sulfides Day 1” value is 22.2 mg/L and 19.6 mg/L; the “Sulfides Day 2” value is 31 mg/L and 26.6 mg/L; the “Sulfides Day 3” value was 36.8 mg/L and 36.4 mg/L. Moreover, in experiment [3], the “inhibiting H2S biogeneration from SRB biofilms (comparison in words)” value was “superior to THPS, AQ, and the combination of THPS and AQ”; the “Sulfides Day 1” value was 9.2 mg/L and 11.2 mg/L; the “Sulfides Day 2” value was 23 mg/L and 27 mg/L; the “Sulfides Day 3” value is 30.6 mg/L and 31 mg/L.

Take “tetrakishydroxymethylphosphonium sulfate [THPS]”: in experiment [3], the “Sulfides Day 1” value is 18 mg/L and 19.8 mg/L; the “Sulfides Day 2” value is 39.6 mg/L and 38.4 mg/L; the “Sulfides Day 3” value came out at 46.2 mg/L.

Regarding `[Na+].[Na+].[O-]c1c2ccccc2c([O-])c2ccccc12` [AHQ, dialkali salt solution, anthrahydroquinone di-alkali salt], the “reducing sulfides (comparison in words)” value in experiment [4] is on record as “superior to AHQ neutral slurry in reducing sulfides”. Besides, in experiment [4] (Test Series #2 procedure (no settling)), the “sulfides on day 3 of treatment” value is 7.4 mg/L. Further, in experiment [5] (centrifugation 20 sec), the “Sulfides Day 1” value was 29 mg/L and 31 mg/L; the “Sulfides Day 2” value was 37.6 mg/L and 45.2 mg/L; the “Sulfides Day 3” value is 42 mg/L and 48.6 mg/L. Further, in experiment [5] (centrifugation 60 sec), the “Sulfides Day 1” value is 36.6 mg/L and 21.8 mg/L; the “Sulfides Day 2” value is 50.8 mg/L and 37 mg/L; the “Sulfides Day 3” value is 53.6 mg/L and 42.6 mg/L.
